Test results: patent publication US20160355530A1, “HEPATITIS C INHIBITORS AND USES THEREOF” (AbbVie Inc., priority 2010, published 2016)
Where two headings read alike, the source gives them in different places.

Tests used:
[1] = test system: HCV 1b-BB7 subgenomic replicon; assay: microbe, parasite or virus in culture; type: cell-based, HCV genotype 1b; settings: Hepatitis C virus, stable replicon
[2] = target: T1, HCV NS5B polymerase 1a-H77 (Hepatitis C virus genotype 1a, UniProt P27958); assay: biochemical; set-up: species or system HCV genotype 1a; settings: enzyme, strain 1a H77; read-out: HCV Polymerase Strain 1a H77 IC50
T1 construct: six-histidine tag; made in house; host or cells: E. coli
T1 sequence (P27958 2421-2990): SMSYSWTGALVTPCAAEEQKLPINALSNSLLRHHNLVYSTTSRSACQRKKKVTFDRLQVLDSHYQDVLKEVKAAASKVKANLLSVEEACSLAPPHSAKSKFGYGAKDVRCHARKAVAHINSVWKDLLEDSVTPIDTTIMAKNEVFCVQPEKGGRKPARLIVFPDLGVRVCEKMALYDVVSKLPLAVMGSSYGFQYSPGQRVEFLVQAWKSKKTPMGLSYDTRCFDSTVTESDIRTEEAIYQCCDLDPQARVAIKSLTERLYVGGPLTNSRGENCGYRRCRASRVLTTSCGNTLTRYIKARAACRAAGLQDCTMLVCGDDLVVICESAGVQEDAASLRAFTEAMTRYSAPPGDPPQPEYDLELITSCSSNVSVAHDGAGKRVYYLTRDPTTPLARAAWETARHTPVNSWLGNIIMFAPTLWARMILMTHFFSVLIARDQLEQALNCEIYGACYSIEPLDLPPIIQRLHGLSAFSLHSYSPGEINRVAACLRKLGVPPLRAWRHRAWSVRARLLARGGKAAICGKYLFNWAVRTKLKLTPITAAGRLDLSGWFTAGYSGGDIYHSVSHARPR
Description: (§1) Purified HCV NS5B polymerase enzymes were used for polymerase inhibition assays. All recombinant HCV polymerases contained the first 570 amino acids of the 591 amino acid native protein sequence and a six-histidine tag at the N-terminus or C-terminus to facilitate purification by affinity chromatography. The DNA nucleotide sequence for the HCV polymerase 1b BK strain was codon optimized for expression in E. coli. A synthetic gene was prepared from a series of overlapping oligonucleotides that were filled in using a DNA polymerase and amplified by PCR. The patient isolate HCV polymerases were cloned by RT-PCR methods using HCV RNA extracted from the serum of infected subjects obtained from ProMedDx and BioCollections (genotypes 2a, 2b, 3a, and 4a). Laboratory strains were cloned from plasmid DNA (1a-H77 or 1a-H77-C316Y) or from existing replicon cells (1b Rice). In all cases the amplified DNA was cloned into a protein expression vector (typically a pET vector from Novagen) and then multiple clones were sequenced to identify one whose NS5B sequence agreed with the population sequence. This sequence-confirmed clone was then transfected into E. coli for protein expression and purification. E. coli cultures were grown to a maximum optical density (OD) of 2-3 and then induced with 0.4 mM isopropyl beta-D-thiogalactopyranoside (IPTG) and grown for 20 hours at 20° C.
(§2) Proteins were purified using nickel affinity chromatography, and additional column steps were added including, ion exchange, size exclusion, hydrophobic ion, and poly-U affinity chromatography, as needed, depending on the sample being purified. The template RNA used in the polymerase enzymatic assay was a 2.1 kb construct that corresponds to the 3′-end of an HCV genotype 1b negative strand RNA.
(§3) The reaction was initiated by the addition of 20 μM CTP, 20 μM ATP, 0.284 μM (0.5 μCi) of 5,6-[^3H] UTP, 5 nM template RNA and 0.1 U/μL RNase inhibitor (RNasin, Promega), and allowed to proceed for three hours at 30° C. The final reaction volume was 50 μL. The reaction was terminated by the addition of 50 uL of 4 mM spermine in 10 mM Tris-HCl, pH 7.5, 1 mM EDTA. The quenched reaction was allowed to incubate for at least 15 minutes at room temperature, and then the precipitated RNA was captured by filtration through a glass fiber filter (GF/B, Millipore) in a 96 well format. The filter plate was washed five times with 200 μL of 2 mM spermine, 10 mM Tris-HCl, pH 8.0, 1 mM EDTA, and two times with ethanol. After drying thoroughly in air, 30 μL of Microscint-20 scintillation cocktail (Perkin Elmer) was added to each well, and the retained cpm were determined by scintillation counting. IC50 values were determined by nonlinear regression.
(§4) % Inhibition=100*[[I]/([I]+[IC50])] equation 1
(§5) V=kcat[S]/2(Km+[S])*(sqrt((IC50+I−E)̂2+(4*IC50*E))−(IC50+I−E)) equation 2

[3] = test system: HCV NS5B polymerase 1a-H77-C316Y; assay: biochemical; set-up: species or system HCV genotype 1a; settings: ratio of enzyme IC50s, 1a H77-C316Y / 1a H77
Description: as §1, §2, §3, §4, §5

[4] = target: T2, HCV NS5B polymerase 1a-H77-C316Y (Hepatitis C virus genotype 1a, UniProt P27958, C2736Y); assay: biochemical; set-up: species or system HCV genotype 1a
T2 construct: six-histidine tag; made in house; host or cells: E. coli
T2 sequence (P27958 2421-2990 C2736Y): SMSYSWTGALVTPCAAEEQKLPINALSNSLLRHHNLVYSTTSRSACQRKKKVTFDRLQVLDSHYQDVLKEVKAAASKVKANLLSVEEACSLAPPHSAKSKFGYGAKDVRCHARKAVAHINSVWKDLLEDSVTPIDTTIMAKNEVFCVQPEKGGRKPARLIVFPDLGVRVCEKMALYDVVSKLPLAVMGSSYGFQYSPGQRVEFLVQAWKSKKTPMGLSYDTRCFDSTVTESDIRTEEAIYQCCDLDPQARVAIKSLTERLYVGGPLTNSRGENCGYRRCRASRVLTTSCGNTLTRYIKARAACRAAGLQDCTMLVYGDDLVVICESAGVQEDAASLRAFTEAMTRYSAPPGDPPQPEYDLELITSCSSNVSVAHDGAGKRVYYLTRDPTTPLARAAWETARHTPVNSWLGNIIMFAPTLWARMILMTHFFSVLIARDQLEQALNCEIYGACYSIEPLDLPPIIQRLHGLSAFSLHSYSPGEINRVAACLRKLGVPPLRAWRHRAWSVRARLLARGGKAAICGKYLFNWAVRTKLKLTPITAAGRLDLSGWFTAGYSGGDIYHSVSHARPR
Description: as §1, §2, §3, §4, §5

[5] = target: T3, HCV NS5B polymerase 1b BK strain (Hepatitis C virus genotype 1b, UniProt P26663); assay: HCV NS5B polymerase enzymatic inhibition assay, strain 1b BK; type: biochemical; settings: enzyme, strain 1b BK; read-out: HCV Polymerase Strain 1b BK IC50
T3 construct: six-histidine tag; made in house; host or cells: E. coli
T3 sequence (P26663 2420-2989): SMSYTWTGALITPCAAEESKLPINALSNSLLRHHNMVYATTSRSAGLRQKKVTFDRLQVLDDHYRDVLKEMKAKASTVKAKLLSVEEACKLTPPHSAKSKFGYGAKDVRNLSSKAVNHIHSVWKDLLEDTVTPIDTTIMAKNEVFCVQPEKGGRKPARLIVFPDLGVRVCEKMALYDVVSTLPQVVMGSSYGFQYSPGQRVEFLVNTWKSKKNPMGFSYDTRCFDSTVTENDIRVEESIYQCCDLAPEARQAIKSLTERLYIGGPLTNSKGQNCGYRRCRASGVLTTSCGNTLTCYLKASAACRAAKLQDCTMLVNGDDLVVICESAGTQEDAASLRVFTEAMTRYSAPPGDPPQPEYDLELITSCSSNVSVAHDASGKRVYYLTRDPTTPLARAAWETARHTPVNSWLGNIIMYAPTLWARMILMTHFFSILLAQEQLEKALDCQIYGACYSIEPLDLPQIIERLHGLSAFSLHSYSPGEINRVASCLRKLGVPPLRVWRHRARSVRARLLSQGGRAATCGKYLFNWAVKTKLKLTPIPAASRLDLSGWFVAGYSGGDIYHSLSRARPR
Description: as §1, §2, §3, §4, §5

[6] = test system: HCV 1a-H77 subgenomic replicon; assay: microbe, parasite or virus in culture; type: cell-based, HCV genotype 1a; settings: Hepatitis C virus, stable replicon
[7] = strain 1b BB7, 5% FBS + 40% human plasma, read-out: 1b BB7 5% FBS + 40% Human Plasma EC50
[8] = strain 1b BB7, 5% FBS, no human plasma, read-out: 1b BB7 5% FBS EC50
[9] = strain 1b BB7, 5% FBS, read-out: 1b BB7 5% FBS EC50
[10] = 5% FBS, absence of human plasma, read-out: Stable Replicon 1a H77 5% FBS EC50
[11] = strain 1a H77, 5% FBS + 40% human plasma, read-out: 1a H77 5% FBS + 40% Human Plasma EC50
[12] = strain 1a H77, 5% FBS, no human plasma, read-out: 1a H77 5% FBS EC50
[13] = strain 1a H77, 5% FBS, read-out: 1a H77 5% FBS EC50

SMILES | EC50 [1, 7] [nM] | EC50 [1, 8] [nM] | EC50 [1, 9] [nM] | IC50 [2] [nM] | C316Y/1a Fold Resistance [3] [fold] | IC50 [4] [nM] | IC50 [5] [nM] | EC50 [6, 10] [nM] | EC50 [6, 11] [nM] | EC50 [6, 12] [nM] | EC50 [6, 13] [nM]
CS(=O)(=O)N(CCOc1ccccc1)c1cc2oc(-c3ccc(F)cc3)c(-c3ncc[nH]3)c2cc1C1CC1 [Example 43, N-[5-cyclopropyl-2-(4-fluorophenyl)-3-(1H-imidazol-2-yl)-1-benzofuran-6-yl]-N-(2-phenoxyethyl)methanesulfonamide] | 616 | 80 | 80 | 6.5 | 154 | 1000 | 25 | 269 | 5210 | 269 | 269
CS(=O)(=O)N(CC1CCCCC1)c1cc2oc(-c3ccc(F)cc3)c(-c3ncc[nH]3)c2cc1C1CC1 [Example 45, N-(cyclohexylmethyl)-N-[5-cyclopropyl-2-(4-fluorophenyl)-3-(1H-imidazol-2-yl)-1-benzofuran-6-yl]methanesulfonamide] | 4410 | 180 | 180 | 7.5 | 39 | 295 | 110 | 87.4 | 3010 | 87.4 | 87.4
COCCN(c1cc2oc(-c3ccc(F)cc3)c(-c3ncc[nH]3)c2cc1C1CC1)S(C)(=O)=O [Example 47, N-[5-cyclopropyl-2-(4-fluorophenyl)-3-(1H-imidazol-2-yl)-1-benzofuran-6-yl]-N-(2-methoxyethyl)methanesulfonamide] | 148 | 25.6 | 25.6 | 7.9 | 126 | 1000 | 41 | 81.7 | 771 | 81.7 | 81.7
CS(=O)(=O)N(CC1CCNC1)c1cc2oc(-c3ccc(F)cc3)c(-c3ncc[nH]3)c2cc1C1CC1 (centres unmarked) [Example 51, N-[5-cyclopropyl-2-(4-fluorophenyl)-3-(1H-imidazol-2-yl)-1-benzofuran-6-yl]-N-(pyrrolidin-3-ylmethyl)methanesulfonamide] | 835 | 194 | 194 | 9.4 | 219 | 2050 | 74 | 1000 | 4590 | 1000 | 1000
CC(C)N(c1cc2oc(-c3ccc(F)cc3)c(-c3ncc[nH]3)c2cc1C1CC1)S(C)(=O)=O [Example 52, N-[5-cyclopropyl-2-(4-fluorophenyl)-3-(1H-imidazol-2-yl)-1-benzofuran-6-yl]-N-isopropylmethanesulfonamide] | 661 | 114 | 114 | 7.7 | 286 | 2220 | 132 | 130 | 1410 | 130 | 130
COC(=O)CCCN(c1cc2oc(-c3ccc(F)cc3)c(-c3ncc[nH]3)c2cc1C1CC1)S(C)(=O)=O [Example 68, methyl 4-{[5-cyclopropyl-2-(4-fluorophenyl)-3-(1H-imidazol-2-yl)-1-benzofuran-6-yl](methylsulfonyl)amino}butanoate] | 496 | 62 | 62 | 5.9 | 17 | 103 | 20 | 57 | 1210 | 57 | 57
CS(=O)(=O)N(CCC1CCCCC1)c1cc2oc(-c3ccc(F)cc3)c(-c3ncc[nH]3)c2cc1C1CC1 [Example 72, N-(2-cyclohexylethyl)-N-[5-cyclopropyl-2-(4-fluorophenyl)-3-(1H-imidazol-2-yl)-1-benzofuran-6-yl]methanesulfonamide] | 2210 | 61 | 61 | 14.3 | 11 | 164 | 46 | 73.7 | 3390 | 73.7 | 73.7
